This data set is described as follows: pKa determination from absorbance or reflectance spectra vs. pH (four parameter sigmoid fit). To be noted: 25°C, 0.9% NaCl. In kind it is physicochemical. Here is the method:
Preferred embodiments of the Invention are illustrated by the following examples. In all cases pKa values of the indicators were obtained at 25°C and constant ionic strength (0.9% NaCl, with buffers at 0.01 M). Absorbance or reflectance spectra of the dyed substrates were taken using a Shimadzu UV-VIS-NIR spectrophotometer model 3101PC or an Ocean Optics PC1000 optical fibre spectrophotometer. pKa data were obtained by plotting the function λb-λ850nm/λa-λ850nm vs. pH, where λb is the absorbance or reflectance at the absorption maximum of the basic form of the indicator dye, λa is absorbance or reflectance at the absorption maximum of the acid form of the indicator dye and λ850nm is the absorption or reflectance at 850 nm. The plots were analysed by fitting the data with the four parameter sigmoid function, f = (a - d)/[1 + (x/c)^b] + d, where a is the asymptotic maximum, b is the slope, c is the pH at inflection or pKa and d is the asymptotic minimum. The fitting was performed using the Marquardt-Levenberg nonlinear least-squares method.

[1] abbreviates: immobilised by Mannich reaction in Biodyne B nylon 6,6 membrane.

By pKa is commonly meant the negative logarithm of the acid dissociation constant.

The structures appear in SMILES notation. Like-named read-outs stand apart in the source and are kept apart here.

`O=[N+]([O-])c1ccc(N=Nc2c(S(=O)(=O)[O-])cc(O)c3ccc(S(=O)(=O)[O-])cc23)c([N+](=O)[O-])c1.[Na+].[Na+]` [nitrazine yellow, 4-(2',4'-dinitrophenylazo)-1-hydroxynaphthalene-3,6-disulfonic acid disodium salt]: under setting [1], the pKa is reported as 5.41. Further, the “solution pKa” value (indicator in solution) is reported as 6.60.
On to `O=S1(=O)OC(c2ccc(O)cc2)(c2ccc(O)cc2)c2ccccc21` [phenol red], for which the pKa is, setting by setting: (immobilised by Mannich reaction in Biodyne A nylon 6,6 membrane) 9.64; under setting [1], 8.68; (immobilised by Mannich reaction on LoProdyne nylon 6,6 membrane modified with 1,6-diaminohexane) 9.86; (indicator in solution, read-out: solution pKa) 8.
